# Data taken from patent US20190246658A1, “METHODS OF HANDLING PAPAYA” (AGROFRESH INC., priority 2013, published 2019).
# Assays:
# [1] = system: Papayas ‘Golden’; assay: Example 1: pulp firmness, external (FTA, 8 mm probe); format: in vivo, papaya; details: 100 ppb of MCP
# Description: (§1) Papayas ‘Golden’ were harvested in Linhares—Espírito Santo—Brazil. The harvested fruits were packed in MAP Bags and put in cardboard boxes.
# (§2) The appropriate weight of papayas was placed in each bag after harvest. Bags were placed in the same cardboard boxes used to export the fruits. Papayas then were cold stored at (11° C.) at the Laboratory.
# (§3) The Test Protocol that was used was as follows. 36 MAP bags were packed. Each bag held approximately 3.8 kg (8.4 lb) of papayas. One such bag was packed in each cardboard box. Total weight of papayas in MAP bags was approximately 137 kg. Approximately 91 kg of papayas were placed into cardboard boxes identical to those used for the MAP bags.
# (§4) The MAP-packaged papayas were packaged as follows: Nine fruits, approximately 3.8 kg were carefully placed into microperforated bags, and the bags were sealed by twisting the open side of the bag, folding down the twisted end, and placing a rubber band around the twisted and folded end of the bag.
# (§5) All papayas were kept at cold temperature (11° C.) during 27 days and after that the fruits (packed in MAP bags or not) were put in room temperature (22° C.) during 8 days.
# (§6) One day after harvest, when the papayas had around 25 lbf of average firmness, each treatment set was marked, placed in a hermetical chamber at cold temperature (11° C.). All chambers were of equal size and packed the same way. Treatment was for 12 hours. In the chambers for the 3 “MCP” treatment groups, at the beginning of the treatment period, SmartFresh™ were placed in the chamber. The amount of SmartFresh™ was chosen to achieve the indicated concentration of 1-methylcyclopropene in the atmosphere of the chamber.
# (§7) Evaluation for skin color and firmness was as follows. Day “zero” was the day the papayas were removed from the chamber and placed in storage.
# For the Pulp Firmness evaluation two measurements where done, one for External Firmness and another for Internal Firmness. For External Firmness, the papayas had the skin removed with a peeler and the pulp firmness was measured with a Firmness Texture Analyzer (FTA) with a probe of 8 mm. For Internal Firmness, the papayas were cut transversally and a measurement close to the center of the fruit was taken with the FTA.
# [2] = system: Papayas ‘Golden’; assay: Example 1: papaya skin color rating; format: in vivo; details: for Skin color ratings: 100 ppb of MCP, scale 1 green to 5 yellow
# Description: as §1, §2, §3, §4, §5, §6, §7
# The Papaya Skin Color was rated with the following scale: 1: green; 2: approximately 25%; 3: approximately 50% colored; 4: approximately 75% colored; 5: yellow.
# [3] = system: Papayas ‘Golden’; assay: Example 2 (yellow stage): pulp firmness, internal; format: in vivo, papaya; details: 500 ppb of MCP
# Description: A similar test to Example 1 but papayas are tested during their yellow stage. Papayas ‘Golden’ were harvested in Linhares—Espírito Santo—Brazil. The fruits were packed in MAP Bags and put in cardboard boxes.
# The fruits were first left at room temperature during 3 days to reach yellow maturity stage.
# After that the appropriate weight of papayas was placed in each bag after harvest. Bags were placed in the same cardboard boxes used to export the fruits. Papayas then were cold stored at (11° C.) at the Laboratory.
# The Test Protocol that was used was as follows. 18 MAP bags were packed. Each bag held approximately 3.8 kg (8.4 lb) of papayas. One such bag was packed in each cardboard box. Total weight of papayas in MAP bags was approximately 68 kg. Approximately 68 kg of papayas were placed into cardboard boxes identical to those used for the MAP bags.
# as §4
# All papayas were kept at cold temperature (11° C.) during 26 days and after that the fruits (packed in MAP bags or not) were put in room temperature (22° C.) during 8 days.
# After the 3 days for maturation at room temperature, when the papayas had around 5 lbf of average firmness, each treatment set was marked, placed in a hermetical chamber at cold temperature (11° C.). All chambers were of equal size and packed the same way. Treatment was for 12 hr. In the chambers for the 2 “MCP” treatment groups, at the beginning of the treatment period, SmartFresh™ were placed in the chamber. The amount of SmartFresh™ was chosen to achieve the indicated concentration of 1-methylcyclopropene in the atmosphere of the chamber.
# as §7
# For the Pulp Firmness evaluation two measurements were done, one for External Firmness and another for Internal Firmness. For External Firmness, the papayas had the skin removed with a peeler and the pulp firmness was measured with a Firmness Texture Analyzer (FTA) with a probe of 8 mm. For Internal Firmness, the papayas were cut transversally and a measurement close to the center of the fruit was taken with the FTA.
# [4] = system: Papayas ‘Golden’; assay: Example 3: pulp firmness, external, MAP bags with different perforations; format: in vivo, papaya; details: for External Firmness - Difference with Untreated Fruits (Δ) / Pulp Firmness - External: 100 ppb of MCP; for External Firmness - Difference with Untreated Fruits (Δ): 5 Days @ 24° C.
# Description: Papayas ‘Golden’ were harvested in Linhares—Espírito Santo—Brazil. The fruits were packed in MAP Bags and put in cardboard boxes.
# as §2
# The Test Protocol that was used was as follows. 40 MAP bags were packed. Each bag held approximately 3.8 kg (8.4 lb) of papayas. One of such bag was packed in each cardboard box. Total weight of papayas in MAP bags was approximately 152 kg. Approximately 8 kg of papayas were placed into cardboard boxes identical to those used for the MAP bags.
# The MAP-packaged papayas were packaged as follows: Nine fruits, approximately 3.8 kg, were carefully placed into microperforated MAP-bags, and the bags were sealed by twisting the open side of the bag, folding down the twisted end, and placing a rubber band around the twisted and folded end of the bag.
# All papayas were kept at cold temperature (11° C.) during 14 days and after that the fruits (packed in MAP bags or not) were put in room temperature (24° C.) during 5 days.
# One day after harvest, when the papayas had around 30 lbf of average firmness, each treatment set was marked and placed in a hermetical chamber at cold temperature (11° C.). All chambers were of equal size and packed the same way. Treatment was for 12 hours.
# In the chambers, SmartFresh™ was placed at the beginning of the treatment period for the 5 “MCP” treatment groups. The amount of SmartFresh™ was chosen to achieve the indicated concentration of 1-methylcyclopropene in the atmosphere of the chamber.
# as §7
# For External Firmness, the papayas had the skin removed with a peeler and the pulp firmness was measured with a Firmness Texture Analyzer (FTA) with a probe of 8 mm.
# [5] = MAP bag, 27 days at 11° C. then 0 days @ 22° C.
# [6] = MAP bag, 27 days at 11° C. then 4 days @ 22° C.
# [7] = MAP bag, 27 days at 11° C. then 8 days @ 22° C.
# [8] = No Bag, 27 days at 11° C. then 0 days @ 22° C.
# [9] = No Bag, 27 days at 11° C. then 4 days @ 22° C.
# [10] = No Bag, 27 days at 11° C. then 8 days @ 22° C.
smiles,measurement,setting,value
"CC1=CC1 [MCP, 1-methylcyclopropene]",Pulp Firmness - External,[1]; [5],17.1 lbf
same,Pulp Firmness - External,[1]; [6],17.0 lbf
same,Pulp Firmness - External,[1]; [7],6.2 lbf
same,Pulp Firmness - External,[1]; [8],25.0 lbf
same,Pulp Firmness - External,[1]; [9],23.4 lbf
same,Pulp Firmness - External,[1]; [10],7.8 lbf
same,"papayas color, in words",[2]; 1-MCP alone (no MAP),did not hold the papayas color
same,Skin color ratings,[2]; [5],2.14
same,Skin color ratings,[2]; [6],2.74
same,Skin color ratings,[2]; [7],3.46
same,Skin color ratings,[2]; [8],1.70
same,Skin color ratings,[2]; [9],4.28
same,Skin color ratings,[2]; [10],4.44
same,Pulp Firmness - Internal,"[3]; MAP bag, 26 days at 11° C. then 0 days @ 22° C.",1.20 lbf
same,Pulp Firmness - Internal,"[3]; MAP bag, 26 days at 11° C. then 4 days @ 22° C.",0.92 lbf
same,Pulp Firmness - Internal,"[3]; MAP bag, 26 days at 11° C. then 8 days @ 22° C.",0.88 lbf
same,Pulp Firmness - Internal,"[3]; No Bag, 26 days at 11° C. then 0 days @ 22° C.",1.21 lbf
same,Pulp Firmness - Internal,"[3]; No Bag, 26 days at 11° C. then 4 days @ 22° C.",1.55 lbf
same,Pulp Firmness - Internal,"[3]; No Bag, 26 days at 11° C. then 8 days @ 22° C.",0.95 lbf
same,"external firmness during shelf-life, in words",[4]; 1-MCP alone (no MAP),not high enough external firmness
same,External Firmness - Difference with Untreated Fruits (Δ),[4]; 24 Perf. MAP bag,2.59 lbf
same,Pulp Firmness - External,"[4]; 24 Perf. MAP bag, 14 days at 11° C. then 3 days @ 24° C.",5.23 lbf
same,Pulp Firmness - External,"[4]; 24 Perf. MAP bag, 14 days at 11° C. then 5 days @ 24° C.",4.12 lbf
same,External Firmness - Difference with Untreated Fruits (Δ),[4]; 48 Perf. MAP bag,0.89 lbf
same,Pulp Firmness - External,"[4]; 48 Perf. MAP bag, 14 days at 11° C. then 3 days @ 24° C.",3.68 lbf
same,Pulp Firmness - External,"[4]; 48 Perf. MAP bag, 14 days at 11° C. then 5 days @ 24° C.",2.42 lbf
same,External Firmness - Difference with Untreated Fruits (Δ),[4]; 90 Perf. MAP bag,1.75 lbf
same,Pulp Firmness - External,"[4]; 90 Perf. MAP bag, 14 days at 11° C. then 3 days @ 24° C.",3.94 lbf
same,Pulp Firmness - External,"[4]; 90 Perf. MAP bag, 14 days at 11° C. then 5 days @ 24° C.",3.28 lbf
same,External Firmness - Difference with Untreated Fruits (Δ),[4]; 180 Perf. MAP bag,1.27 lbf
same,Pulp Firmness - External,"[4]; 180 Perf. MAP bag, 14 days at 11° C. then 3 days @ 24° C.",3.64 lbf
same,Pulp Firmness - External,"[4]; 180 Perf. MAP bag, 14 days at 11° C. then 5 days @ 24° C.",2.80 lbf
same,External Firmness - Difference with Untreated Fruits (Δ),[4]; No Bag,1.09 lbf
same,Pulp Firmness - External,"[4]; No Bag, 14 days at 11° C. then 3 days @ 24° C.",6.23 lbf
same,Pulp Firmness - External,"[4]; No Bag, 14 days at 11° C. then 5 days @ 24° C.",2.62 lbf
